Earlier results, collected in patent publication US8314084B2, “Device and methods for sequential, regional delivery of multiple cytotoxic agents and directed assembly of wound repair tissues” (priority 2002, dated 2012).

Conditions: given intravenously to dogs

Compound: N.N.[Cl][Pt][Cl] [cisplatin, Cis-diamminedichloroplatinum H]
- usual maximum dose-limiting schedule: 70 mg/m^2
